Results on one compound are retold here after publication PMC10221159, “Investigation of N-Acetyltransferase 2-Mediated Drug Interactions of Amifampridine: In Vitro and In Vivo Evidence of Drug Interactions with Acetaminophen” (Pharmaceutics, 2023).

Values joined by “and” are separate entries in the source; they are usually repeats but may differ in a detail not shown here. Equal entries are not always repeated. Where two headings read alike, the source gives them in different places.

Data set [1] in a line: In vivo pharmacokinetic interaction study in rats (plasma). Conditions: male, Sprague-Dawley, rat, plasma, ip, 100 mg/kg, acetaminophen 100 mg/kg intraperitoneally, rats. Further details: species or system rat. Here is the method:
Male Sprague Dawley (SD) rats (7–8 weeks old, 260–330 g) were purchased from Orient Bio, Inc. (Seongnam, Korea). The rats were housed under a light/dark cycle for 12 h and were left for at least a week before the experiment to adapt to the laboratory environment. Water and food were provided ad libitum. The rats were fasted overnight with free access to water prior to pharmacokinetic studies. The protocols for animal experiments were approved in accordance with the Guidelines for Animal Care and Use of Gachon University (approval no.: GIACUC-R2021006; 13 May 2021).
The rats were anesthetized with a mixture of Rompun and Zoletil by intramuscular injection and received an intraperitoneal injection of vehicle (40:60 PEG400:normal saline; n = 8) or 100 mg/kg acetaminophen (n = 8). After 10 min, 2 mg/kg amifampridine (dissolved in saline) was administered orally. Blood samples were collected at 0, 5, 15, 30, 60, 90, 120, 240, and 360 min and centrifuged at 14,000 rpm for 15 min at 4 °C. For analysis of amifampridine and 3-N-acetylamifampridine, 50 μL of plasma samples was mixed with 100 μL IS solution (5 ng/mL ondansetron in acetonitrile) and the mixture was vortexed followed by centrifugation at 14,000 rpm for 15 min at 4 °C. For the analysis of acetaminophen, 200 μL of IS (tolbutamide 200 ng/mL in methanol) was added to the plasma samples which were diluted 10-fold using the blank plasma and then vortexed for one minute. Further, the samples were centrifuged at 14,000 rpm for 15 min at 4 °C. The supernatants were transferred to LC vials for quantification.
Non-compartment analysis (NCA) was performed to calculate the pharmacokinetic parameters for the in vivo study using WinNonlin (Version 8.3. (Pharsight Corporation, Mountain View, CA, USA)). The area under the plasma concentration–time curve from time 0 to infinity (AUCinf) was calculated by the linear trapezoidal method and standard extrapolation using λ, where λ represents the slope of the terminal phase in a semi-log graph for plasma concentration–time profiles. Renal clearance (CLr) was determined by dividing the accumulated amount of drug excreted in the urine by AUCinf.

Data set [2] addresses T1, NAT2 (Rattus norvegicus, UniProt P50298).
T1 sequence (P50298 1-290): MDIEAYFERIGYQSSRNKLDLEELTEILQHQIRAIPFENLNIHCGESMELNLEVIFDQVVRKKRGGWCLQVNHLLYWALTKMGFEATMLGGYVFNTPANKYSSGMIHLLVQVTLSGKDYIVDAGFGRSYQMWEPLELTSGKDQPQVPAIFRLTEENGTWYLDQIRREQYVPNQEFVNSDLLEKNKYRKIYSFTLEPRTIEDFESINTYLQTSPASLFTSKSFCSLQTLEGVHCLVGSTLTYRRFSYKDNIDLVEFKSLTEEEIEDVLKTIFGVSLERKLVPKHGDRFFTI
The data set can be described thus: Inhibition of amifampridine acetylation to 3-N-acetylamifampridine by NAT2 inhibitors, rat liver S9 fraction. The format is biochemical. Conditions: rat vs human liver S9 fractions. The procedure:
To determine the half maximal inhibitory concentration (IC50) value of NAT2 inhibitors (acetaminophen, apocynin, and cimetidine) on the metabolism of amifampridine to 3-N-acetylamifampridine, the reaction mixture consisted of a liver S9 fraction (2 mg/mL protein) and 2 mM acetyl-CoA in potassium phosphate buffer was pre-incubated for 5 min in a thermomixer at 37 °C. Then, the NAT2 inhibitors (final concentrations of 0, 1, 5, 10, 50, 100, 500, 1000, and 5000 μM) and amifampridine (final concentration of 50 μM) were added to the reaction mixture and incubated for 15 min at 37 °C. An amount of 50 μL of the mixture was then transferred into the tube and mixed with 100 μL of IS (5 ng/mL ondansetron in acetonitrile). The mixture was vortexed and centrifuged at 14,000 rpm for 15 min at 4 °C. The supernatant was transferred into vials for HPLC-MS/MS analysis and the concentration of 3-N-acetylamifampridine was determined.

Data set [3] addresses T2, NAT2 (Homo sapiens, UniProt P11245).
T2 construct: in vitro using S9 fractions obtained from human, rat, and mouse livers; from tissue; host or cells: human liver S9 fraction
T2 sequence (P11245 1-290): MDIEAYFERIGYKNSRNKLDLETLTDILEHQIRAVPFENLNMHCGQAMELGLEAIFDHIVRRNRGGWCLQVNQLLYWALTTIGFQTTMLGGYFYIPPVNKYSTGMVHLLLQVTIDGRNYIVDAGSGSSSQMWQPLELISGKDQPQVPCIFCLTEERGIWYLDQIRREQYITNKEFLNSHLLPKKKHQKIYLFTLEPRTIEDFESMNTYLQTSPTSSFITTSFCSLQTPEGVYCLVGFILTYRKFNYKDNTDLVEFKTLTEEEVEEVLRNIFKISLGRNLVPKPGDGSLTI
Further details: method as in PMID 26519524, PMID 9918139. Conditions: sulfamethazine acetylation, cited from earlier work.

The target of data set [4] is T1, NAT2. Briefly: Time-dependent inhibition of amifampridine metabolism by acetaminophen, rat liver S9 fraction. In kind it is biochemical. The procedure:
To examine whether acetaminophen could inhibit the metabolic activity of amifampridine in a time-dependent manner, the experiment was conducted by using a high concentration of amifampridine (approximately four-fold Km value) for different pre-incubation times (0, 10, 30, and 60 min) in the presence of different concentrations of acetaminophen (0, 10, 50, 100, and 500 μM). The reaction mixture contained the liver S9 fraction (2 mg/mL protein) and 2 mM acetyl-CoA in potassium phosphate buffer. Then, acetaminophen was added and pre-incubated at different times in a thermomixer at 37 °C. The reaction was then initiated by adding amifampridine (240 μM as a final concentration) and vortex mixing followed by incubation at 37 °C for 15 min. After incubation, the 50 μL aliquot was transferred into a tube containing 200 μL of ice-cold potassium phosphate to dilute it five-fold. […]
Kobs, the observed rate of enzyme loss, was estimated from the negative slopes of the lines using a linear regression analysis of the natural logarithm of metabolite formation as a function of incubation time. The first-order rate constant, Kinact, which represents the maximum rate of enzyme inactivation, was calculated using a nonlinear regression analysis as follows: Kobs=Kinact×I/Ki+I

Details of data set [5]: method as in PMID 21074742. Particulars: humans, oral or intravenous administration; cited from earlier work.
In data set [6] the target is T1, NAT2. The data set can be described thus: Reversible inhibition mode of acetaminophen on amifampridine metabolism, rat liver S9 fraction (Lineweaver–Burk, secondary plots). In kind it is biochemical. Here is the method:
To determine the inhibition mechanism of amifampridine metabolism by acetaminophen, various concentrations of amifampridine (40, 80, 160, and 320 μM) were incubated with the rat liver S9 fraction in the presence of different concentrations of acetaminophen (0, 10, 50, 100, and 500 μM). After pre-incubating the reaction mixture containing 2 mM acetyl-CoA for 5 min in a thermomixer at 37 °C, acetaminophen and amifampridine were added and further incubated for 15 min at 37 °C. The samples were diluted five-fold using potassium phosphate buffer, then 50 μL of the diluted samples was transferred into the tube containing 100 μL of IS (5 ng/mL ondansetron in acetonitrile). The mixture was vortexed and centrifuged at 14,000 rpm for 15 min at 4 °C. The supernatant was transferred into vials for HPLC-MS/MS analysis and the concentration of 3-N-acetylamifampridine was determined.
The α value is the degree to which the binding of acetaminophen changes the affinity of the enzyme for amifampridine.

Data set [7] deals with T2, NAT2. Briefly: Inhibition of amifampridine acetylation to 3-N-acetylamifampridine by NAT2 inhibitors, human liver S9 fraction. The format is biochemical. Conditions: amifampridine 50 μM, 15 min.

For `CC(=O)Nc1ccc(O)cc1` [acetaminophen], the Cmax was 54800 ng/mL and 362 µM in data set [1]; at most 200 µM in data set [5]. Further, the “stronger inhibitory effect in rats compared to humans (IC50 ratio)” value in data set [2] is listed as “approximately 29 fold”. Besides, the inhibitory constant (Ki) in data set [3] (human liver cytosol from fast acetylators) was 2.14 mM; in data set [3] (human liver cytosol from slow acetylators), 0.712 mM. Further, in data set [4] (acetaminophen pre-incubated with rat liver S9), the “decrease of metabolic activity of amifampridine” value was “approximately 0.31 % per min”. Besides, the inactivation rate constant (kinact) in data set [4] (pre-incubation 0-60 min, amifampridine 240 μM, rat liver S9) is 5.17e-05 s⁻¹. For the same compound, in data set [6] (Lineweaver–Burk plot, rat liver S9), the inhibition mode entry is listed as “mixed inhibition”. For the same compound, the α value in data set [6] (rat liver S9, mixed inhibition model) is 3.48. In data set [6] (secondary plot (y-intercept), rat liver S9), this compound displayed a αKi of 238.8 ± 25.6 µM. Also, in data set [7], the midpoint of inhibition, the IC50, lay at 4.48 ± 0.742 mM.

The Cmax is the highest concentration seen after dosing. What is called Ki is the equilibrium dissociation constant of an inhibitor or competing ligand from its target. A word on the kinact: it is the rate constant of inactivation at saturating inhibitor. Broadly, the IC50 is the concentration that inhibits the measured activity by half. Higher therefore signals lower potency.
